Reference: the supplement of paper PMC9663587

Legend:
[1] = compound: T1, CCOc1cc2ncc(C#N)c(Nc3ccc(OCc4ccccn4)c(Cl)c3)c2cc1NC(=O)/C=C/CN(C)C [Neratinib/HKI272]; assay: GR value, 72 h; higher = faster growth (1 = untreated, <0 = killing);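 further: breast cancer and non-malignant breast epithelial lines, nine half-log doses, viable cells counted by Hoechst and LIVE/DEAD dye imaging versus time-zero plates and DMSO controls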
[2] = compound: T2, CN1CC[C@H](c2c(O)cc(O)c3c(=O)cc(-c4ccccc4Cl)oc23)[C@H](O)C1 [Flavopiridol]; assay: as above
[3] = compound: CCc1cnn2c(NCc3ccc[n+]([O-])c3)cc(N3CCCC[C@H]3CCO)nc12; assay: increase in dead-cell fraction, 72 h; higher = more death;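 further: breast cancer cell lines in 384-well plates, stained with Hoechst plus LIVE/DEAD far red dye and imaged, cells above an LDR intensity threshold counted dead, Hoechst-negative corpses included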
[4] = compound: CN(C)C/C=C/C(=O)Nc1ccc(C(=O)Nc2cccc(Nc3ncc(Cl)c(-c4c[nH]c5ccccc45)n3)c2)cc1 [THZ1]; assay: as above
[5] = compound: T1, Neratinib/HKI272; assay: as above
[6] = compound: CC(=O)c1c(C)c2cnc(Nc3ccc(N4CCNCC4)cn3)nc2n(C2CCCC2)c1=O; assay: as above
[7] = compound: C=CC(=O)Nc1ccc(C(=O)Nc2[nH]nc3c2CN(C(=O)N[C@H](CN(C)C)c2ccccc2)C3(C)C)cc1 [YKL-5-124]; assay: as above
[8] = compound: CC(=O)c1c(C)c2cnc(Nc3ccc(N4CCN(CCOCCOCCOCCNC(=O)COc5cccc6c5C(=O)N(C5CCC(=O)NC5=O)C6=O)CC4)cn3)nc2n(C2CCCC2)c1=O [BSJ-03-123]; assay: as above
[9] = compound: CN(C)C/C=C/C(=O)Nc1ccc(C(=O)N2CCC[C@@H](Nc3ncc(Cl)c(-c4c[nH]c5ccccc45)n3)C2)cc1 [THZ531]; assay: as above
[10] = compound: CN(C)C(=O)c1cc2cnc(Nc3ccc(N4CCNCC4)cn3)nc2n1C1CCCC1 [LEE011/Ribociclib]; assay: as above
[11] = compound: T2, Flavopiridol; assay: as above
[12] = compound: CCN1CCN(Cc2ccc(Nc3ncc(F)c(-c4cc(F)c5nc(C)n(C(C)C)c5c4)n3)nc2)CC1; assay: as above

MDAMB468
GR value ([1]; 0.0003162 µM): 0.947 GR | GR value ([1]; 0.001 µM): 0.97 GR | GR value ([1]; 0.003162 µM): 0.983 GR | GR value ([1]; 0.01 µM): 0.969 GR | GR value ([1]; 0.03162 µM): 0.838 GR | GR value ([1]; 0.1 µM): 0.56 GR | GR value ([1]; 0.3162 µM): 0.257 GR | GR value ([1]; 1 µM): -0.0811 GR | GR value ([1]; 3.162 µM): -0.395 GR | GR value ([2]; 0.0001 µM): 0.989 GR | GR value ([2]; 0.0003162 µM): 0.962 GR | GR value ([2]; 0.001 µM): 0.929 GR | GR value ([2]; 0.003162 µM): 0.953 GR | GR value ([2]; 0.01 µM): 0.931 GR | GR value ([2]; 0.03162 µM): 0.898 GR | GR value ([2]; 0.1 µM): 0.662 GR | GR value ([2]; 0.3162 µM): 0.213 GR | GR value ([2]; 1 µM): -0.426 GR | increase in dead-cell fraction ([3]; 0.0001 µM): 0.0037 | increase in dead-cell fraction ([3]; 0.0003162 µM): -0.0009 | increase in dead-cell fraction ([3]; 0.001 µM): -0.0038 | increase in dead-cell fraction ([3]; 0.003162 µM): 0.0016 | increase in dead-cell fraction ([3]; 0.01 µM): 0.0237 | increase in dead-cell fraction ([3]; 0.03162 µM): 0.245 | increase in dead-cell fraction ([3]; 0.1 µM): 0.396 | increase in dead-cell fraction ([3]; 0.3162 µM): 0.462 | increase in dead-cell fraction ([3]; 1 µM): 0.494 | increase in dead-cell fraction ([4]; 0.0001 µM): -0.0001 | increase in dead-cell fraction ([4]; 0.0003162 µM): -0.0124 | increase in dead-cell fraction ([4]; 0.001 µM): -0.0067 | increase in dead-cell fraction ([4]; 0.003162 µM): -0.0067 | increase in dead-cell fraction ([4]; 0.01 µM): 0.0039 | increase in dead-cell fraction ([4]; 0.03162 µM): 0.0402 | increase in dead-cell fraction ([4]; 0.1 µM): 0.165 | increase in dead-cell fraction ([4]; 0.3162 µM): 0.149 | increase in dead-cell fraction ([4]; 1 µM): 0.313 | increase in dead-cell fraction ([5]; 0.0003162 µM): 0.0075 | increase in dead-cell fraction ([5]; 0.001 µM): 0.0021 | increase in dead-cell fraction ([5]; 0.003162 µM): 0.0111 | increase in dead-cell fraction ([5]; 0.01 µM): 0.0196 | increase in dead-cell fraction ([5]; 0.03162 µM): 0.0337 | increase in dead-cell fraction ([5]; 0.1 µM): 0.0953 | increase in dead-cell fraction ([5]; 0.3162 µM): 0.205 | increase in dead-cell fraction ([5]; 1 µM): 0.381 | increase in dead-cell fraction ([5]; 3.162 µM): 0.6 | increase in dead-cell fraction ([6]; 0.0003162 µM): 0.0165 | increase in dead-cell fraction ([6]; 0.001 µM): 0.0114 | increase in dead-cell fraction ([6]; 0.003162 µM): 0.0024 | increase in dead-cell fraction ([6]; 0.01 µM): -0.0003 | increase in dead-cell fraction ([6]; 0.03162 µM): 0.0031 | increase in dead-cell fraction ([6]; 0.1 µM): -0.006 | increase in dead-cell fraction ([6]; 0.3162 µM): -0.0071 | increase in dead-cell fraction ([6]; 1 µM): -0.001 | increase in dead-cell fraction ([6]; 3.162 µM): -0.0077 | increase in dead-cell fraction ([7]; 0.001 µM): 0.0818 | increase in dead-cell fraction ([7]; 0.003162 µM): 0.116 | increase in dead-cell fraction ([7]; 0.01 µM): 0.0906 | increase in dead-cell fraction ([7]; 0.03162 µM): 0.163 | increase in dead-cell fraction ([7]; 0.1 µM): 0.171 | increase in dead-cell fraction ([7]; 0.3162 µM): 0.183 | increase in dead-cell fraction ([7]; 1 µM): 0.231 | increase in dead-cell fraction ([7]; 3.162 µM): 0.213 | increase in dead-cell fraction ([7]; 10 µM): 0.386 | increase in dead-cell fraction ([8]; 0.001 µM): -0.0103 | increase in dead-cell fraction ([8]; 0.003162 µM): 0.0028 | increase in dead-cell fraction ([8]; 0.01 µM): 0.0034 | increase in dead-cell fraction ([8]; 0.03162 µM): 0.0062 | increase in dead-cell fraction ([8]; 0.1 µM): 0.0131 | increase in dead-cell fraction ([8]; 0.3162 µM): 0.0169 | increase in dead-cell fraction ([8]; 1 µM): 0.0332 | increase in dead-cell fraction ([8]; 3.162 µM): 0.0309 | increase in dead-cell fraction ([8]; 10 µM): 0.128 | increase in dead-cell fraction ([9]; 0.0001 µM): -0.0128 | increase in dead-cell fraction ([9]; 0.0003162 µM): 0.0007 | increase in dead-cell fraction ([9]; 0.001 µM): -0.006 | increase in dead-cell fraction ([9]; 0.003162 µM): 0.0023 | increase in dead-cell fraction ([9]; 0.01 µM): 0.0064 | increase in dead-cell fraction ([9]; 0.03162 µM): 0.0382 | increase in dead-cell fraction ([9]; 0.1 µM): 0.104 | increase in dead-cell fraction ([9]; 0.3162 µM): 0.168 | increase in dead-cell fraction ([9]; 1 µM): 0.141 | increase in dead-cell fraction ([10]; 0.001 µM): -0.0034 | increase in dead-cell fraction ([10]; 0.003162 µM): -0.0042 | increase in dead-cell fraction ([10]; 0.01 µM): 0.0065 | increase in dead-cell fraction ([10]; 0.03162 µM): -0.0098 | increase in dead-cell fraction ([10]; 0.1 µM): -0.0059 | increase in dead-cell fraction ([10]; 0.3162 µM): -0.0074 | increase in dead-cell fraction ([10]; 1 µM): -0.0071 | increase in dead-cell fraction ([10]; 3.162 µM): -0.01 | increase in dead-cell fraction ([10]; 10 µM): -0.0011 | increase in dead-cell fraction ([11]; 0.0001 µM): -0.0044 | increase in dead-cell fraction ([11]; 0.0003162 µM): 0.0084 | increase in dead-cell fraction ([11]; 0.001 µM): -0.004 | increase in dead-cell fraction ([11]; 0.003162 µM): -0.0097 | increase in dead-cell fraction ([11]; 0.01 µM): 0.0094 | increase in dead-cell fraction ([11]; 0.03162 µM): 0.002 | increase in dead-cell fraction ([11]; 0.1 µM): 0.0269 | increase in dead-cell fraction ([11]; 0.3162 µM): 0.0941 | increase in dead-cell fraction ([11]; 1 µM): 0.274 | increase in dead-cell fraction ([12]; 0.001 µM): 0.0107 | increase in dead-cell fraction ([12]; 0.003162 µM): 0.0019 | increase in dead-cell fraction ([12]; 0.01 µM): -0.0006 | increase in dead-cell fraction ([12]; 0.03162 µM): -0.0012 | increase in dead-cell fraction ([12]; 0.1 µM): -0.0016 | increase in dead-cell fraction ([12]; 0.3162 µM): -0.0021 | increase in dead-cell fraction ([12]; 1 µM): 0.019 | increase in dead-cell fraction ([12]; 3.162 µM): 0.101 | increase in dead-cell fraction ([12]; 10 µM): 0.545
